# Source: ChEMBL document CHEMBL1201862, “PubChem BioAssay data set” (2004)
#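 Exposure lasted 48 hours, with cells grown in 96-well plates and compounds tested at five concentrations. At the GI50, growth is halved.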 Calls of active or inactive are those of the source. No stated cut-off is given here; in the data, active = GI50 up to about 1.1 µM and inactive = higher.
# Columns and labels:
# Experiment in all cases: inhibition of tumour cell growth, NCI panel, 48 h
# UACC-257 = system: UACC-257
# Hs-578T = system: Hs-578T
# HCT-116 = system: HCT-116
# A549 = system: A549
# HOP-18 = system: HOP-18
# NCI-H460 = system: NCI-H460
# OVCAR-5 = system: OVCAR-5
# NCI/ADR-RES = system: NCI/ADR-RES
# OVCAR-3 = system: OVCAR-3
# MDA-N = system: MDA-N
# CAKI-1 = system: CAKI-1
# DU-145 = system: DU-145
# SNB-78 = system: SNB-78
# IGROV-1 = system: IGROV-1
# MDA-MB-435 = system: MDA-MB-435
# HOP-92 = system: HOP-92
# KM-20L2 = system: KM-20L2
# HCC 2998 = system: HCC 2998
# SR = system: SR
# HOP-62 = system: HOP-62
# 786-0 = system: 786-0
# SF-268 = system: SF-268
# HCT-15 = system: HCT-15
# BT-549 = system: BT-549
# HT-29 = system: HT-29
# DLD-1 = system: DLD-1
# T47D = system: T47D
# NCI-H23 = system: NCI-H23
# SN12C = system: SN12C
# SW-620 = system: SW-620
# DMS-114 = system: DMS-114
# SF-295 = system: SF-295
# KM12 = system: KM12
# PC-3 = system: PC-3
# NCI-H226 = system: NCI-H226
# HL-60 = system: HL-60
# MOLT-4 = system: MOLT-4
# M19-MEL = system: M19-MEL
# LXFL 529 = system: LXFL 529
# OVCAR-8 = system: OVCAR-8
# SK-MEL-2 = system: SK-MEL-2
# UO-31 = system: UO-31
# OVCAR-4 = system: OVCAR-4
# M14 = system: M14
# CCRF-CEM = system: CCRF-CEM
# SK-MEL-5 = system: SK-MEL-5
# RXF 393 = system: RXF 393
# SNB-75 = system: SNB-75
# SF-539 = system: SF-539
# Malme-3M = system: Malme-3M
# NCI-H522 = system: NCI-H522
# K562 = system: K562
# U-251 = system: U-251
# A498 = system: A498
# RPMI-8226 = system: RPMI-8226
# LOX IMVI = system: LOX IMVI
# EKVX = system: EKVX
# SK-OV-3 = system: SK-OV-3
# SK-MEL-28 = system: SK-MEL-28
# COLO 205 = system: COLO 205
# UACC-62 = system: UACC-62
# TK-10 = system: TK-10
# DMS-273 = system: DMS-273
# SNB-19 = system: SNB-19
compound,measurement,setting,value
CNCCNc1ccc2c3c(nn2CCNCCO)-c2c(O)ccc(O)c2C(=O)c13,GI50,UACC-257,1.81 µM (inactive)
same,GI50,Hs-578T,0.166 µM (active)
same,GI50,HCT-116,0.346 µM (active)
same,GI50,A549,0.0597 µM (active)
same,GI50,HOP-18,0.508 µM (active)
same,GI50,NCI-H460,0.0139 µM (active)
same,GI50,OVCAR-5,0.468 µM (active)
same,GI50,NCI/ADR-RES,20.8 µM (inactive)
same,GI50,OVCAR-3,1.03 µM (active)
same,GI50,MDA-N,0.966 µM (active)
same,GI50,CAKI-1,0.101 µM (active)
same,GI50,DU-145,0.0713 µM (active)
same,GI50,SNB-78,0.526 µM (active)
same,GI50,IGROV-1,0.454 µM (active)
same,GI50,MDA-MB-435,0.923 µM (active)
same,GI50,HOP-92,0.173 µM (active)
same,GI50,KM-20L2,0.55 µM (active)
same,GI50,HCC 2998,0.2 µM (active)
same,GI50,SR,0.0519 µM (active)
same,GI50,HOP-62,0.0179 µM (active)
same,GI50,786-0,0.08 µM (active)
same,GI50,SF-268,0.0601 µM (active)
same,GI50,HCT-15,1.72 µM
same,GI50,BT-549,0.109 µM (active)
same,GI50,HT-29,0.378 µM (active)
same,GI50,DLD-1,1.26 µM (inactive)
same,GI50,T47D,0.635 µM (active)
same,GI50,NCI-H23,0.111 µM (active)
same,GI50,SN12C,0.0397 µM (active)
same,GI50,SW-620,0.273 µM (active)
same,GI50,DMS-114,0.0575 µM (active)
same,GI50,SF-295,0.0681 µM (active)
same,GI50,KM12,0.211 µM (active)
same,GI50,PC-3,0.535 µM (active)
same,GI50,NCI-H226,0.0227 µM (active)
CCO/C([O-])=C(\C(=O)c1ccccc1)[n+]1c(C)sc2ccccc21,GI50,HL-60,53.2 µM (inactive)
same,GI50,MOLT-4,> 100 µM (inactive)
same,GI50,M19-MEL,18.4 µM (inactive)
same,GI50,UACC-257,13.5 µM (inactive)
same,GI50,HCT-116,> 100 µM (inactive)
same,GI50,LXFL 529,54.1 µM (inactive)
same,GI50,A549,45.5 µM (inactive)
same,GI50,HOP-18,20 µM (inactive)
same,GI50,OVCAR-8,> 100 µM (inactive)
same,GI50,SK-MEL-2,58.3 µM (inactive)
same,GI50,NCI-H460,59.3 µM (inactive)
same,GI50,UO-31,50.6 µM (inactive)
same,GI50,OVCAR-4,96.6 µM (inactive)
same,GI50,OVCAR-5,> 100 µM (inactive)
same,GI50,M14,> 100 µM (inactive)
same,GI50,CCRF-CEM,> 100 µM (inactive)
same,GI50,SK-MEL-5,16.7 µM (inactive)
same,GI50,RXF 393,> 100 µM (inactive)
same,GI50,OVCAR-3,> 100 µM (inactive)
same,GI50,SNB-75,> 100 µM (inactive)
same,GI50,SF-539,93.3 µM (inactive)
same,GI50,CAKI-1,> 100 µM (inactive)
same,GI50,Malme-3M,96.6 µM (inactive)
same,GI50,NCI-H522,81.3 µM (inactive)
same,GI50,K562,81.3 µM (inactive)
same,GI50,SNB-78,> 100 µM (inactive)
same,GI50,IGROV-1,> 100 µM (inactive)
same,GI50,KM-20L2,> 100 µM (inactive)
same,GI50,U-251,> 100 µM (inactive)
same,GI50,HCC 2998,> 100 µM (inactive)
same,GI50,A498,> 100 µM (inactive)
same,GI50,HOP-62,> 100 µM (inactive)
same,GI50,RPMI-8226,59 µM (inactive)
same,GI50,786-0,> 100 µM (inactive)
same,GI50,LOX IMVI,49.2 µM (inactive)
same,GI50,EKVX,> 100 µM (inactive)
same,GI50,SF-268,> 100 µM (inactive)
same,GI50,SK-OV-3,> 100 µM (inactive)
same,GI50,HCT-15,21.9 µM
same,GI50,SK-MEL-28,> 100 µM (inactive)
same,GI50,HT-29,> 100 µM (inactive)
same,GI50,DLD-1,> 100 µM (inactive)
same,GI50,NCI-H23,61.8 µM (inactive)
same,GI50,COLO 205,83.6 µM (inactive)
same,GI50,UACC-62,52.8 µM (inactive)
same,GI50,TK-10,> 100 µM (inactive)
same,GI50,DMS-273,> 100 µM (inactive)
same,GI50,SW-620,> 100 µM (inactive)
same,GI50,DMS-114,32.3 µM (inactive)
same,GI50,SF-295,64.4 µM (inactive)
same,GI50,KM12,> 100 µM (inactive)
same,GI50,NCI-H226,> 100 µM (inactive)
same,GI50,SNB-19,> 100 µM (inactive)
